Assay results from article PMC6906431, “Selective small molecule PARG inhibitor causes replication fork stalling and cancer cell death” (Nature Communications, 2019).
Values joined by “and” are separate entries in the source; they are usually repeats but may differ in a detail not shown here. Equal entries are not always repeated.

Columns and labels:
[1] = target: T1, PARG in PC3 cells (Homo sapiens, UniProt Q86W56); assay: Cellular thermal shift assay (CETSA); type: cell-based; settings: 10 μM JA2131
T1 construct: endogenous in cells; host or cells: PC3
T1 sequence (Q86W56 whole entry): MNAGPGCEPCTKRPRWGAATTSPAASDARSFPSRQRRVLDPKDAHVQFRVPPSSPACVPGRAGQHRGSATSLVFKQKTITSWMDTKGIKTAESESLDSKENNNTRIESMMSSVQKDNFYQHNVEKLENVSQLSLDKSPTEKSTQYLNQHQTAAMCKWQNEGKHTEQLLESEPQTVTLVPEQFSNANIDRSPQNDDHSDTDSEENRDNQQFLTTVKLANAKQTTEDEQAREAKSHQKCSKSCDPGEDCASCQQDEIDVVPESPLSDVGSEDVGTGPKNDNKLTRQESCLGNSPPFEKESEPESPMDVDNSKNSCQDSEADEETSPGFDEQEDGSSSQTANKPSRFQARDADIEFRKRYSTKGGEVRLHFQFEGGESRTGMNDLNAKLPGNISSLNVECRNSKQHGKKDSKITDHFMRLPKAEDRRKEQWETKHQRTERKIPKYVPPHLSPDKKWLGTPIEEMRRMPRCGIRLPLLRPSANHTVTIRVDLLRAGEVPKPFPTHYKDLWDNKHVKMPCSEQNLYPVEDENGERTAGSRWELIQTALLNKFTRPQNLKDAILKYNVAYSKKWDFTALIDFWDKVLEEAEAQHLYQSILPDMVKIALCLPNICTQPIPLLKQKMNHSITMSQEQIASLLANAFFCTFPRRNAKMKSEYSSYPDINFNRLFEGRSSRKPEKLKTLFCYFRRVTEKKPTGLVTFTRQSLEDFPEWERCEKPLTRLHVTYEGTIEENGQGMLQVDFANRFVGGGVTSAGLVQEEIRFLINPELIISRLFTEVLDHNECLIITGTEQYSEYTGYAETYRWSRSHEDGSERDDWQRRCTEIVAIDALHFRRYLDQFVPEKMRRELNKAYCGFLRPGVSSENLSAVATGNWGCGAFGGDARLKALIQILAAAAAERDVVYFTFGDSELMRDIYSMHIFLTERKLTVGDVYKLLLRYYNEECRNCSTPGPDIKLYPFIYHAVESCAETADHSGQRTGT
Procedure: (§1) CETSA was performed as described by Molina et al.[44]. Briefly, PC3 cells were treated with 10 μM JA2131 or an equivalent volume of DMSO for 2 h, washed three times with PBS and extracted for total cell lysate. Ten percent glycerol was added to the samples before subjecting to heat. […] Then, samples were centrifuged at 14,000 rpm for 20 min at 4 °C. Supernatants were carefully removed and analyzed by western blotting analysis.
(§2) Supplementary Fig. 14: Representative CETSA western blots for PARG and PCNA. PC3 cells
(§3) treated with 10 µM JA2131 or DMSO were temperature shocked as described in Materials and […]
(§4) PCNA antibody. Anti -Histone H3 was used as loading control.
(§5) (1 picture or pasted object on this page, not shown here)

[2] = test system: PC3 cells; assay: Clonogenic survival assay; type: cell-based, human; settings: for surviving colonies, Replicates: two weeks
Procedure: (§6) Fig. 6 Selective inhibition of PARG by xanthine derivative JA2131. a Clonogenic survival assays of PC3, MDA-MB-231, and MCF-7 cells treated with PARGi. Cells were treated with either DMSO or 10 µM JA2131 for 2 h, irradiated with 3 Gy (MDA-MB-231 and MCF-7), 7 Gy (PC3) IR and grown for ~2 weeks, then colonies were fixed with methanol and stained with crystal violet. The results of three independent experiments are shown. Error bars = the standard error of the mean (SEM). b dose-response of JA2131 in MDA-MB-231 cells with and without IR. Cells were treated with designated concentrations of JA2131 for 2 h and then either left untreated or exposed to 3 Gy IR and allowed to recover for 1 h before lysis. Total protein was immunoblotted with anti-PAR antibody (upper panel), stripped and reprobed with anti-PCNA as a loading control. c MDA-MB-231 cells with stable scrambled shRNA (WT) or stable PARG shRNA, knockdown (KD), were treated with 5 μM JA2131 for 2 h, lysed and then total lysates were immunoblotted for anti-PAR (upper panel) followed by anti-PARG (upper middle panel), anti-PARP1 (lower middle panel) and anti-actin (bottom panel) antibody. […] Stable cells with scramble shRNA (control) and shPARG (PARG-KD) cells were treated with an increasing concentration of JA2131 for growth inhibitory IC50 determination. The data was normalized against 100% survival at the lowest inhibitor concentration. Error bars show the percent coefficient of variation. Equivalent concentrations of DMSO were used as a negative control. e The cytotoxicity of JA2131 along with PDD, Veliparib and Doxorubicin against MRC-5 cells. Error bars show the percent coefficient of variation. f CETSA for in-cell JA2131 target engagement. Normalized anti-PARG western blot intensities of three independent experiments were fitted as above and the estimated aggregation temperature (Tagg) is shown in the tabulated insert. Source Data are provided as a Source Data file.
(§7) PC3, MDA-MB-231 cells were maintained in RPMI 1640, MCF-7 cells in Eagle’s Minimum Essential Medium (EMEM), MRC-5 cells in Eagle’s Minimum Essential Medium and Hela and U2OS cells in Dulbecco’s modified Eagle’s high glucose medium (DMEM) supplemented with 10% (vol/vol) fetal bovine serum (FBS) and 1% antibiotic/antimycotic (Lonza) in a humidified incubator with 10% CO2. All cell lines were purchased from ATCC and regularly checked for mycoplasma and cell authentication. SUM 149PT cells were cultured in F-12 Hams (Gibco) supplemented with 5% fetal bovine serum, insulin, and hydrocortisone. Colony formation assays were carried out in 6-well plates, 500 cells were used per well and following designated treatment, and colonies were grown for 2 weeks. Cells were fixed with methanol (100%), stained with crystal violet and analyzed using a GelCount instrument (Oxford Optronix Ltd). Crystal Violet C6158 was purchased from Sigma. PARG knockdown cells were generated by infecting MDA-MB-231 cells with shPARG lentiviral particles (sc-106355-V, Santa Cruz Biotechnology), which contain a pool of three shRNA plasmids. After 24 h infection, 3 µg/ml puromycin (Invitrogen) was added and antibiotic-resistant cells were further expanded and used for experimentation. Sequence-1; hairpin sequence: […], sense: […]tt, Antisense: […]tt. Sequence-2; hairpin sequence, […]-[…], sense: […]tt, antisense: […]tt. Sequence-3; hairpin sequence: […]-[…], sense: […]tt, antisense: […]-GGUUUCCtt. Control cells were generated using the same process except that scramble lentiviral particles with scrambled sequences were used (sc-108080).
(§8) Supplementary Fig. 8: Clonogenic survival of cells in the presence of PARGi and PARPi (a)
(§9) Clonogenic survival of PC3 cells in response to indicated compounds. ( b) Clonogenic survival of
(§10) MDA-MB-231 cells in response to i ndicated compounds. (c) Clonogenic survival of MCF -7 cells
(§11) in response to indicated compounds. […]

[3] = test system: MDA-MB-231 cells; assay: Clonogenic survival assay; type: cell-based, human; settings: for colony count (clonogenic survival, raw replicate data, Supplementary Figure 8): MDA-MB-231
Procedure: as §6, §7, §8, §9, §10, §11

[4] = target: hPARP1 (Homo sapiens, UniProt P09874); assay: In vitro PARP1 auto-PARylation; settings: inhibitor 25 – 100 µM; 25 µM NAD+
Chain of hPARP1 (P09874 whole entry): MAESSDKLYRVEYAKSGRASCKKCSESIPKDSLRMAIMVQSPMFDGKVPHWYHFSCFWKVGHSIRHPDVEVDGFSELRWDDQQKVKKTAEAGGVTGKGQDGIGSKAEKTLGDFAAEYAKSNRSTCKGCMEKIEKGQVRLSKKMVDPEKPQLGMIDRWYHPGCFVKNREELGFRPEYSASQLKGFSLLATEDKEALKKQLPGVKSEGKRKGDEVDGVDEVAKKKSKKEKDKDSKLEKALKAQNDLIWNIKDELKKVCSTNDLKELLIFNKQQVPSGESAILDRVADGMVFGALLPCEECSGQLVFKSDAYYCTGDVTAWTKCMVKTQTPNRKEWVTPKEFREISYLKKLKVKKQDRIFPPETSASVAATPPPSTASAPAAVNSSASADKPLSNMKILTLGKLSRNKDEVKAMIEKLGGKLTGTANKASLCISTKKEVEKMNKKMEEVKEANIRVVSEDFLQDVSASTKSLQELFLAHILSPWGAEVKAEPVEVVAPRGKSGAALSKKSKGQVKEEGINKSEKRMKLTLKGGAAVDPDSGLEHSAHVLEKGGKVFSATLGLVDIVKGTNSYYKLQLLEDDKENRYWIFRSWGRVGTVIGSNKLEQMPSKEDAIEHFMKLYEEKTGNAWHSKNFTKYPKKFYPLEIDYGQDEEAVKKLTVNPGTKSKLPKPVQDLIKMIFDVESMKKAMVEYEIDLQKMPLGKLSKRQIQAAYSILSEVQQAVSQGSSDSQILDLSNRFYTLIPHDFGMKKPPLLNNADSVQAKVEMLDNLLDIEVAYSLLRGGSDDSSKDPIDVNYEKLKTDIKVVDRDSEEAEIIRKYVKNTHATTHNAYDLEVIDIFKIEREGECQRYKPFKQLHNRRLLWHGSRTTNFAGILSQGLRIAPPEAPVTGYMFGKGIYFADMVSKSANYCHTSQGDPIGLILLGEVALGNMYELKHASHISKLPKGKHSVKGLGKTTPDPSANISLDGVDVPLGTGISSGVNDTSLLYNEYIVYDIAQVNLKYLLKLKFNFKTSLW

[5] = target: T2, PCNA in PC3 cells (Homo sapiens, UniProt P12004); assay: Cellular thermal shift assay (CETSA), control protein; type: cell-based; settings: 10 μM JA2131
T2 construct: endogenous in cells; host or cells: PC3
T2 sequence (P12004 whole entry): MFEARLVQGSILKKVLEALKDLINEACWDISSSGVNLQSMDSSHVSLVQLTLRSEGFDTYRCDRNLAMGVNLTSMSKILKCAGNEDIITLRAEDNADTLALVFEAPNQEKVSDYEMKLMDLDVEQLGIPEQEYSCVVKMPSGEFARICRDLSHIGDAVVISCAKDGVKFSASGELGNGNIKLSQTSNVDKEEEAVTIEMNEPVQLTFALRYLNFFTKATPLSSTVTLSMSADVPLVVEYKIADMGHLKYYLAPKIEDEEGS
Procedure: as §1, §2, §3, §4, §5

[6] = 10 µM JA2131 2 h, 7 Gy IR, ~2 weeks

stabilization of PARG proteins in cells [1]: 9 °C | Band intensities, anti-PARG ([1]; Temperature 4 °C): 100 | Band intensities, anti-PARG ([1]; Temperature 51 °C): 93.0607 | Band intensities, anti-PARG ([1]; Temperature 62 °C): 68.3696 | Band intensities, anti-PARG ([1]; Temperature 68 °C): 57.8125 | Band intensities, anti-PARG ([1]; Temperature 72 °C): 44.7308 | Band intensities, anti-PARG ([1]; Temperature 77 °C): 28.3012 | Band intensities, anti-PARG ([1]; Temperature 85 °C): 16.0619 | Band intensities, anti-PCNA ([5]; Temperature 4 °C): 100 | Band intensities, anti-PCNA ([5]; Temperature 51 °C): 91.1484 | Band intensities, anti-PCNA ([5]; Temperature 62 °C): 38.4112 | Band intensities, anti-PCNA ([5]; Temperature 68 °C): 12.3183 | Band intensities, anti-PCNA ([5]; Temperature 72 °C): 4.285 | Band intensities, anti-PCNA ([5]; Temperature 77 °C): 3.2332 | Band intensities, anti-PCNA ([5]; Temperature 85 °C): 4.145
Structure (SMILES): Cn1c(=S)c2[nH]c(SCCN3CCOCC3)nc2n(C)c1=O [JA2131]
Surviving Fraction [2, 6]: 0.7713 and 0.7545 and 0.8277 and 0.7845 | clonogenic survival (Exp-1 to Exp-4) [2, 6]: 77.1344 and 75.4495 and 82.7709 and 78.4516 | surviving colonies, Replicates ([2]; JA2131 0.5 uM): 47 and 58 and 49 and 56 and 83 and 61 | surviving colonies, Replicates ([2]; JA2131 1 uM): 9 and 48 and 34 and 20 and 62 and 2 | surviving colonies, Replicates ([2]; JA2131 5 uM): 1 and 29 and 2 (2×) and 24 and 0 | surviving colonies, Replicates ([2]; JA2131 10 uM): 2 and 15 and 14 and 0 and 21 and 5 | Surviving Fraction ([3]; 10 µM JA2131 2 h, 3 Gy IR, ~2 weeks): 0.4526 and 0.3681 and 0.2687 and 0.3631 | colony count (clonogenic survival, raw replicate data, Supplementary Figure 8) ([3]; Experiment-1, replicates 1-6): 76 (2×) and 74 and 77 and 70 and 85 | colony count (clonogenic survival, raw replicate data, Supplementary Figure 8) ([3]; Experiment-2, replicates 1-6): 61 (3×) and 68 and 76 and 65 | colony count (clonogenic survival, raw replicate data, Supplementary Figure 8) ([3]; Experiment-3, replicates 1-6): 34 and 25 and 20 and 47 and 33 and 35 | inhibition of PARP1 activation (PAR synthesis) [4]: did not inhibit PARP1 activation up to 100 μM | change in thermal stability of PCNA control [5]: no significant change in thermal stability
